Assay [1] has as its system OVA-specific T cell responses and antibody responses. Description: Ovalbumin immunization of mice with adjuvants: OVA-specific T cell and antibody responses. The format is in vivo. The procedure:
6-8 weeks aged mice were primarily immunized by the inventors using intraperitoneal injection method, wherein Ovalbumin (10 μg/mouse) was used as antigen and PBS (negative control), MPL (10 μg/mouse, positive control), rapamycin (100 μg/mouse), rapamycin (100 μg/mouse)+MPL (10 μg/mouse) as adjuvant respectively, and were immunized again with ovalbumin (10 μg/mouse, without adjuvant) at 3 weeks. […] After 48 hours, enzyme linked immunosorbent assay (ELISA) was used to determine the content of IFNγ in the supernatant.

The test system of assay [2] is melanoma murine cell line B16 OVA. Description: Tumor growth of B16 OVA melanoma in mice immunized with ovalbumin plus adjuvants. Format: in vivo. The following applies: ovalbumin 10 μg/mouse i.p. prime and boost; polyI:C 50 μg, rapamycin 100 μg, MPL 10 μg per mouse; B16 OVA 1×10^6 cells s.c. 4 weeks after secondary immunization.
Protocol: By intraperitoneal injecting, 6-8 weeks aged mice were immunized using ovalbumin (10 μg/mouse) as antigen and PBS (200 μl, negative control), polyI:C (Invivogen) (50 μg/mouse), rapamycin (100 μg/mouse), MPL (10 μg/mouse), MPL (10 μg/mouse)+rapamycin (100 μg/mouse), polyI:C (50 μg/mouse)+rapamycin (100 μg/mouse) used as adjuvant to conduct primary immunization. After two weeks, the mice were boosted by the same program. 4 weeks after the secondary immunization, melanoma murine cell line B16 OVA expressing OVA was subcutaneous implanted into mice (1×10^6 cells/mouse), and the tumor growth was measured.
[3] abbreviates: blood 1 week after secondary immunization, single adjuvants vs negative control, combination vs MPL alone.

As for monophosphoryl lipid A [MPL], in assay [1] (setting [3]), the “OVA-specific IgG1 antibody titers” value is recorded as “significantly increase”, the “OVA-specific IgG2b antibody titers” value is “significantly increase” and the “OVA-specific IgG2c antibody titers” value is listed as “significantly increase”. For the same substance, in assay [1] (mice i.p., ovalbumin 10 μg, MPL 10 μg, rapamycin 100 μg per mouse, IFNγ ELISA of splenic cells stimulated with OVA-1, 48 hours), the “OVA-specific CD8+ T cell responses” value is recorded as “significantly increase”. In addition, in assay [1] (mice i.p., ovalbumin 10 μg, MPL 10 μg, rapamycin 100 μg per mouse, IFNγ ELISA of splenic cells stimulated with OVA-II, 48 hours), the “OVA-specific CD4+ (Th1) T cell responses” value is “significantly increase”.

Regarding polyI:C, the tumor growth entry in assay [2] was “grew slowly and was of relatively small volume”.

These data come from patent publication US20160279236A1, “USE OF RAPAMYCIN AS VACCINE ADJUVANT AND PREPARATION METHOD THEREFOR” (INSTITUT PASTEUR OF SHANGHAI, CHINESE ACADEMY OF SCIENCES, priority 2013, published 2016).
